For one experiment, the system named is caspase-9. As to the kind of experiment: Caspase-9 ELISA in HCT-15 cells. Type of experiment: cell-based, human. As to the method:
(§1) To measure caspase-8 and caspase-9 levels, DRG® Caspase-8 (human) (EIA-4863) ELISA and DRG® Caspase-9 (human) (EIA-4860) ELISA kits were used. Briefly, prepare cell extracts after induction of apoptosis. Resuspend the extracts in lysis buffer, incubate 60 min at room temperature, and centrifuge for 15 min. Wash the microwell strips with 400 µl wash buffer. Add 100 µl of sample diluent in duplicate to all standard wells. Add 100 µl of sample diluent in duplicate to the blank wells. Add 50 µl of sample diluent to the sample wells. Add 50 µl of each sample in duplicate to the sample wells. Add 50 µl of detection antibody to all wells and incubate at room temperature for 2 h. Add 100 µl of diluted anti-rabbit-IgG-HRP to all wells, including the blank wells. Pipette 100 µl of (3,3′,5,5′-Tetramethylbenzidine) TMB substrate solution to all wells and incubate at room temperature for about 15 min. Stop the enzyme reaction by pipetting 100 µl of stop solution into each well. Read absorbance of each microwell on a spectro-photometer using 450 nm. Determine the absorbance of both the samples and the standards.
(§2) The activation of caspases as caspase-3, caspase-8, and caspase-9 is responsible for apoptosis, particularly caspase-3 which is an effector caspase that has an important role in apoptosis. It is activated by one of the initiator caspases which results in the activation of certain enzymes responsible for the fragmentation of DNA[53]. Caspase-8 and -9 are initiator caspases that are responsible for caspase-3 activation.

Experiment [1] concerns leukaemia HL-60 (TB) cell line. Nature of the experiment: MTT cytotoxicity assay. Type of experiment: cell-based. The conditions noted are these: Homo sapiens, mean ± SD of three experiments.
The test system of another experiment is caspase-8. Nature of the experiment: Caspase-8 ELISA in HCT-15 cells. The format is cell-based, human. On the procedure:
as §1, §2
(In general: In an ELISA, binding on a coated surface is turned into a signal by an enzyme label.)

Another experiment has as its system renal (UO-31) cell line. Nature of the experiment: MTT cytotoxicity assay. Type of experiment: cell-based. The conditions noted are these: Homo sapiens, mean ± SD of three experiments. (Tetrazolium dyes change colour on reduction, which living cells bring about.)
A further experiment has as its system colon (HCT-15) cell line. Nature of the experiment: MTT cytotoxicity assay. Type of experiment: cell-based. The conditions noted are these: Homo sapiens, mean ± SD of three experiments.
In another experiment the test system is caspase-3. Nature of the experiment: Caspase-3 (active) ELISA in HCT-15 cells. The format is cell-based, human. As to the method:
The level of the apoptotic marker caspase-3 was assessed using Human Caspase-3 (active) ELISA Kit Catalog # KHO1091. The procedure of the used kit was done according to the manufacturer’s instructions. Allow all reagents to reach room temperature before use. Gently mix all liquid reagents prior to use. Add 100 µl of the standard diluent buffer to the zero standard wells. Add 100 µl of standards and controls or diluted samples to the appropriate microtiter wells. Incubate for 2 h at room temperature. […] Incubate for 1 h at room temperature. Add 100 µl anti-rabbit IgG HRP working solution to each well. Prepare the working dilution and incubate for 30 min at room temperature. Add 100 µl of stabilised chromogen to each well. The liquid in the wells will begin to turn blue. Incubate for 30 min at room temperature and in the dark. Add 100 µl of stop solution to each well. The solution in the wells should change from blue to yellow. Read the absorbance of each well at 450 nm. Read the plate within 2 h after adding the stop solution. Use a curve fitting software to generate the standard curve. Read the concentrations for unknown samples and controls from the standard curve.
as §2

In the next experiment the test system is HUVECs. Nature of the experiment: Wound healing assay (CytoSelect 24-well). The format is cell-based, human. The conditions noted are these: 72 h, 5b 2.4 µM, sunitinib 3.2 µM, control 97.03 ± 5.47. As to the method: Wound healing assay of compound 5b was evaluated using CytoSelect™ 24-Well Wound Healing Assay kit Catalog # CBA-120 according to manufacturer’s instructions. In brief, the 24-well plate wound healing inserts were allowed to warm up at room temperature for 10 minutes, then to each well, 500 µl of human umbilical vascular endothelial cells (HUVECs) suspension (1.0 × 10^6) in media containing 10% fetal bovine serum (FBS) was added. Cells were kept in a cell culture incubator until a monolayer form. Carefully the insert was removed from the well. The media were slowly aspirated and discarded from the wells. The wells were washed with media to remove dead cells and debris. Finally, the media were added to wells to keep cells hydrated, then wells were visualized under a light microscope. […] The percent closure of the cells into the wound field was measured.
One of the hallmarks of angiogenesis is cell migration, which happens in the earlier stages of the angiogenic cascade. A wound-healing assay was performed to investigate in vitro anti-angiogenic property of compound 5b.

For orientation: IC50 means the concentration that gives 50% inhibition. Low values mean inhibition by little substance, high ones a need for much substance. Compound `CCN(CC)CCNC(=O)c1c(C)[nH]c(/C=C2\C(=O)Nc3ccc(F)cc32)c1C` [Sunitinib, reference compound] returned a Caspase-9 in the experiment with caspase-9 (mean ± SD of three experiments, control 3.225 ± 0.44) of 27.26 ± 0.82 ng/mL. Besides, the “increase in the level of caspase-9” value in the experiment on caspase-9 (vs control) is recorded as 8.453 fold. The IC50 in experiment [1] amounted to 2.77 ± 0.14 µM; in the experiment with renal (UO-31) cell line, 18.1 ± 0.95 µM; in the experiment with colon (HCT-15) cell line it was 9.06 ± 0.49 µM. Also, the Caspase-8 with caspase-8 (mean ± SD of three experiments, control 0.377 ± 0.03) came out at 1.284 ± 0.11 ng/mL. The “increase in the level of caspase-8” value with caspase-8 (vs control) came out at 3.406 fold. In the experiment with caspase-3 (mean ± SD of three experiments, control 0.073 ± 0.01), this compound registered a Caspase-3 of 0.641 ± 0.02 ng/mL. Further, in the experiment with caspase-3 (vs control), the “increase in the level of caspase-3” value is 8.780 fold. Also, the Wound closure percentage in the experiment with HUVECs was found to be 44.44 ± 2.51%.

For the origin of these results see paper PMC8079033, “Design, synthesis, anticancer evaluation, and molecular modelling studies of novel tolmetin derivatives as potential VEGFR-2 inhibitors and apoptosis inducers” (Journal of Enzyme Inhibition and Medicinal Chemistry, 2021).
